How the values were obtained:
[1] = tested on: SK-OV-3 human ovarian cancer cell strain; assay: In vitro anti-proliferation of tumor cells (CCK-8), SK-OV-3; type: cell-based; conditions: SK-OV-3, 72 hours
Procedure: (§1) Experimental Example 2: Determination of the Compounds According to the Present Invention for IC50 of the In Vitro Anti-Proliferation of Tumor Cells
SK-OV-3 human ovarian cancer cell strain (purchased from Shanghai Institute of Cell Biology, Chinese Academy of Sciences);
(§2) Preparation of a compound: the compound was diluted with DMSO to a final concentration of 10 mM.
(§3) a) Cells in logarithmic growth phase were collected, counted, and re-suspended in complete medium. The concentration of cells was adjusted to a suitable concentration (determined depending on the result of optimization experiment of cell density), and the cells were seeded to a 96-well plate at 100 μl cell suspension per well. The cells were incubated in an incubator at 37° C., 100% relative humidity, 5% CO2 for 24 hours.
(§4) b) A test compound was diluted with the culture medium to 500 μM, and then gradient dilution was performed for 8 times. Cells were added at 25 μl/well. The final concentrations of the compound was in a range from 100 μM and 0 μM, 4-fold diluted, including 10 concentrations.
(§5) c) The cells were incubated in an incubator at 37° C., 100% relative humidity, 5% CO2 for 72 hours.
(§6) d) The culture medium was withdraw and discarded, the complete medium containing 10% CCK-8 was added, and then the cells were incubated in an incubator at 37° C. for 2-4 hours.
(§7) IC50 curve was fitted and IC50 value was calculated by professional software GraphPad Prism 5.0.
(§8) In the experiment, the compounds according to the present invention were determined for their IC50 values of in vitro anti-proliferation of tumor cell strains. The final concentrations of the compounds was in a range from 100 μM and 0 μM, 4-fold diluted, including 10 concentrations.

[2] = tested on: HCT116 human colon cancer cell strain; assay: In vitro anti-proliferation of tumor cells (CCK-8), HCT-116; type: cell-based; conditions: HCT-116, 72 hours
Procedure: as §1
HCT116 human colon cancer cell strain (purchased from Shanghai Institute of Cell Biology, Chinese Academy of Sciences);
as §2, §3, §4, §5, §6, §7, §8

[3] = tested on: 786-O human renal clear cell carcinoma cell strain; assay: In vitro anti-proliferation of tumor cells (CCK-8), 786-O; type: cell-based; conditions: 786-0, 72 hours
Procedure: as §1
786-O human renal clear cell carcinoma cell strain (purchased from Shanghai Institute of Cell Biology, Chinese Academy of Sciences);
as §2, §3, §4, §5, §6, §7, §8

[4] = tested on: A498 human renal carcinoma cell strain; assay: In vitro anti-proliferation of tumor cells (CCK-8), A498; type: cell-based; conditions: A498, 72 hours
Procedure: as §1
A498 human renal carcinoma cell strain (purchased from Shanghai Institute of Cell Biology, Chinese Academy of Sciences);
as §2, §3, §4, §5, §6, §7, §8

[5] = tested on: MDA-MB-231 human mammary cancer cell strain; assay: In vitro anti-proliferation of tumor cells (CCK-8), MDA-MB-231; type: cell-based; conditions: for IC50: Homo sapiens, MDA-MB-231, 72 hours, CCK-8
Procedure: as §1
MDA-MB-231 human mammary cancer cell strain (purchased from Shanghai Institute of Cell Biology, Chinese Academy of Sciences);
as §2, §3, §4, §5, §6, §7, §8

[6] = tested on: MiaPaCa-2 human pancreatic cancer cell strain; assay: In vitro anti-proliferation of tumor cells (CCK-8), MiaPaCa-2; type: cell-based; conditions: MIA PaCa-2, MiaPaCa-2, 72 hours
Procedure: as §1
MiaPaCa-2 human pancreatic cancer cell strain (purchased from American ATCC);
as §2, §3, §4, §5, §6, §7, §8

[7] = tested on: HepG2 human liver cancer cell strain; assay: In vitro anti-proliferation of tumor cells (CCK-8), HepG2; type: cell-based; conditions: HepG2, 72 hours
Procedure: as §1
HepG2 human liver cancer cell strain (purchased from Shanghai Institute of Cell Biology, Chinese Academy of Sciences);
as §2, §3, §4, §5, §6, §7, §8

[8] = tested on: NCI-H460 Human large cell lung cancer cell strain; assay: In vitro anti-proliferation of tumor cells (CCK-8), NCI-H460; type: cell-based; conditions: NCI-H460, 72 hours
Procedure: as §1
NCI-H460 Human large cell lung cancer cell strain (purchased from Shanghai Institute of Cell Biology, Chinese Academy of Sciences);
as §2, §3, §4, §5, §6, §7, §8

[9] = tested on: HL-60 human acute myeloid leukemia cell strain; assay: In vitro anti-proliferation of tumor cells (CCK-8), HL-60; type: cell-based; conditions: HL-60, 72 hours
Procedure: as §1
HL-60 human acute myeloid leukemia cell strain (purchased from Shanghai Institute of Cell Biology, Chinese Academy of Sciences);
as §2, §3, §4, §5, §6, §7, §8

Pharmacokinetics in mice = type: in vivo; conditions: female, plasma, CD-1 mouse; for bioavailability: PO 5 mg/kg vs IV 1 mg/kg, read-out: F (oral bioavailability); for AUC(0-t): read-out: AUClast (area under the curve)
Procedure: Administration route: intravenous injection (IV); per os (PO).
Fasting condition: free access to water, no fasting.
The mice were weighed before administration, and the administration volume was calculated based on their body weights (IV group: 4 mL/kg; PO group: 10 mL/kg).
Administration route and dose: Intravenous (IV) group: 1 mg/kg; Oral (PO) group: 5 mg/kg.
Animal grouping: 3 mice/group, an IV group and a PO group for each test compound.
After administration, 30 μL whole blood was collected from rim of the eyes of mice in the IV group at each pre-determined time point (5 min, 15 min, 30 min, 1 h, 2 h, 4 h, 8 h, 24 h), and 30 μL whole blood was collected from rim of the eyes of mice in the PO group at each pre-determined time point (15 min, 30 min, 1 h, 2 h, 4 h, 8 h, 24 h). The whole blood was centrifuged (6,000 rpm, 5 min) to get blood plasma. All the blood plasma samples were stored in a refrigerator of −80° C. for further analysis.
Conditions of LC/MS/MS was as follows:
Pharmacokinetic parameters were estimated according to non-compartment model (calculated by WinNonlin software): […]
IV paramater: t1/2 (hr); C0 (ng/mL); AUClast (hr*ng/mL); AUCInf (hr*ng/mL); AUC Extr (%); Vz (L/kg); Vss (L/kg); CL (mL/min/kg); MRT (hr).
PO parameter: t1/2 (hr); tmax (hr); Cmax (ng/mL); AUClast (hr*ng/mL); AUCInf (hr*ng/mL); AUC Extr (%); MRT (hr); AUC/D (hr*mg/mL); F (%).

[10] = PO 5 mg/kg, average of three mice

Work on Cn1cc(-c2nccc(Oc3ccc(NC(=O)Nc4ccc(Cl)c(C(F)(F)F)c4)cc3)c2Cl)cn1 [Example 2, 1-(4-chloro-3-(trifluoromethyl)phenyl)-3-(4-(3-chloro-2-(1-methyl-pyrazol-4-yl)-pyridin-4-yl-oxy)phenyl)urea] yielded an IC50 [1] of 5.76 µM, an IC50 [2] of 3.16 µM and an IC50 [3] of 2.77 µM. The IC50 [4] was 4.71 µM, the IC50 [5] was 3.05 µM and the “IC50 as fold of that of Sorafenib” value ([5]; MDA-MB-231 cell line) was 0.30 fold. For the same compound, the IC50 [6] was 2.34 µM, the IC50 [7] was 0.808 µM and the IC50 [8] was 1.05 µM. It also gave an IC50 [9] of 18.2 µM, a bioavailability (Pharmacokinetics in mice) of 82.9% and an AUC(0-t) (Pharmacokinetics in mice; [10]) of 56600 ng·h/mL. It also gave a Cmax (Pharmacokinetics in mice; PO 5 mg/kg, average of three mice, read-out: Cmax (peak concentration)) of 3010 ng/mL.
In the case of CNC(=O)c1cc(Oc2ccc(NC(=O)Nc3ccc(Cl)c(C(F)(F)F)c3)cc2)ccn1 [Comparative example 1, Sorafenib, reference compound], the IC50 [1] is reported as 17.9 µM, the IC50 [2] is reported as 4.56 µM and the IC50 [3] is reported as 4.51 µM. The IC50 [4] was 5.49 µM, the IC50 [5] was 10 µM and the IC50 [6] was 3.06 µM. For the same compound, the IC50 [7] was 0.947 µM, the IC50 [8] was 1.27 µM and the IC50 [9] was 22 µM. The bioavailability (Pharmacokinetics in mice) was 78.6% and the AUC(0-t) (Pharmacokinetics in mice; [10]) was 18900 ng·h/mL.

Reference: patent US9902709B2, “Polysubstituted pyridine compound, preparation method, use and pharmaceutical composition” (PEKING UNIVERSITY FOUNDER GROUP CO., LTD., priority 2014, dated 2018)
